According to publication PMC9267059, “Selective Inhibition of Murine Cytomegalovirus Viral Gene Expression by the Antiviral Peptide TAT-I24” (International Journal of Molecular Sciences, 2022):

Columns and labels:
double-stranded DNA [1] = experiment: DNA binding assay (fluorescence reduction of SYBR Gold-stained plasmid DNA); conditions: three independent experiments performed in duplicates
Protocol: Binding of peptides to double-stranded DNA was determined by reduction of fluorescence from SYBR® Gold-stained plasmid DNA as described previously.

MCMV = experiment: Luciferase assay of MCMV replication (strain delm157-luc rep) in NIH/3T3 cells; type: cell-based, murine cytomegalovirus; conditions: NIH/3T3 cells infected with MCMV, 72 h post-infection, at the concentrations tested, three independent experiments in duplicates
Protocol: NIH/3T3 cells were seeded at a density of 2 × 10^4 cells/well of a 96-well plate and allowed to attach overnight. On the next day, cells were treated with various concentrations of peptides, or cidofovir either alone or in combination with increasing concentrations of TAT-I24 and infected with MCMV strain delm157-luc rep with centrifugal enhancement twice at 800× g for 15 min. After 72 h, cells were lysed and luciferase measured using luciferase assay system (Promega; Mannheim, Germany) using a GloMax Multi instrument (Promega; Mannheim, Germany).
Curve fittings and statistics were calculated using GraphPad Prism 8 (GraphPad Software, San Diego, CA, USA). Bliss synergy scores were calculated using SynergyFinder 2.0 software (https://synergyfinder.fimm.fi (accessed on 25 June 2022)).

double-stranded DNA [2] = conditions: cited from earlier work
Protocol: To determine whether reduction of host-gene expression early after MCMV infection is related to the ability of the peptide to bind DNA, variants of TAT-I24 were generated with modifications of the TAT fusion partner (Figure 5A). The peptides were tested for their potency in inhibiting MCMV replication and their binding to DNA. […] Inhibition is independent of whether these are immediate-early, early or late genes, as they were all reduced to a similar extent, thereby excluding a specific effect of the peptide on a particular viral gene.

[3] = system: MCMV viral gene expression; experiment: MCMV viral gene transcript levels by quantitative PCR relative to Gapdh; type: cell-based, murine cytomegalovirus; conditions: NIH/3T3, MCMV MOI 1, 2 h post-infection, four independent experiments
Protocol: NIH/3T3 fibroblasts were infected with MCMV expressing luciferase at low MOI (MOI 1) with the aid of centrifugal enhancement. Infections were performed either in the absence or presence of 10 µM TAT-I24. Cells were lysed after 30 min or 2-, 4-, 8- and 24-h post-infection. Total RNA was isolated and treated with DNase I to remove viral DNA before synthesis of the cDNA. Levels of viral transcripts were then analyzed by quantitative PCR and normalized to mRNA levels of the glyceraldehyde-3-phosphate dehydrogenase (Gapdh) housekeeping gene.
NIH/3T3 cells were seeded at a density of 8 × 10^4 cells/well of a 24-well plate and allowed to attach overnight. On the next day, MCMV strain delm157-luc rep was adsorbed to cells (MOI 1) in the absence or presence of 10 µM TAT-I24 and centrifuged twice at 800× g for 15 min. Cells were then kept at 37 °C and lysed after the indicated time-points.

[4] = system: host-cell transcripts in NIH/3T3 cells infected with MCMV; experiment: Host-cell transcript levels by quantitative PCR in MCMV-infected NIH/3T3 cells; type: cell-based; conditions: MCMV MOI 1, 2 h post-infection, four independent experiments
[5] = system: mouse cytomegalovirus (CMV); conditions: cited from earlier work

Sequence	DNA binding (fluorescence reduction of SYBR Gold-stained plasmid DNA) (double-stranded DNA [1])	antiviral activity (luciferase reporter gene expression) (MCMV)	ie1 transcript levels, comparison of peptides [3]	further results
RRRPPQCLAFYACFC [TAT-M24, six C-terminal residues of the TAT peptide fused to I24]	reduced DNA binding	lack of antiviral activity		
CLAFYACFC [I24]				binding to DNA (double-stranded DNA [2]): also binds DNA
GRKKRRCLAFYACFC [TAT-M26, six N-terminal amino-acid residues of the TAT peptide fused to I24]			significant inhibitory effect	Ccl5 expression, comparison of peptides [4]: significant reduction; Ccl7 expression, comparison of peptides [4]: significant reduction; Ifit1 expression, comparison of peptides [4]: significant reduction
GRKKRRQRRRPPQ [TAT, reference compound]	partial fluorescence reduction		partial reduction	replication of mouse cytomegalovirus (MCMV) [5]: partial inhibitory effect
RRRCLAFYACFC [TAT-M25, three amino-terminal arginine residues fused to I24]	reduced DNA binding	lack of antiviral activity		
